Results: patent US20190110981A1, “Cannabinoid Patch” (LIFE TECH GLOBAL, LLC, priority 2017, published 2019)

Columns and labels:
[1] = In vitro transdermal flux, human cadaver skin and Franz diffusion cell; type: in vitro ADME; settings: for Flux over the course of about 20 hours: monolithic PIB patch with oil containing CBD/THC 1:1, Franz diffusion cell (FIG. 3)
Text: FIG. 1. In vitro cumulative flux (micrograms/cm^2) of cannabidiol (CBD) through skin versus time (hours).
FIG. 2. In vitro flux of tetrahydrocannabinol (THC) from ethanol/water, at each of the indicated ratios of ethanol/water.
The disclosure provides a graph of transdermal flux (FIG. 3). […] Alternatively, the oil contains CBD/THC in a 1:1 ratio (wt./wt.).
The following concerns reservoir patches. The composition inside the reservoir can have the consistency of a paste, but in an alternative embodiment, it can have the consistency of an oil, or it can have the consistency of a liquid, or it can have the consistency of a slurry. Parameters for FIG. 2 are as follows. Flux was allowed to occur for 24 hours, and FIG. 2 provides the value at 24 hours, […] The layers are 30 cm square and the hydrogel is one cm cubed or one milliliter. The layers have microporous membrane with […] pore size. The layers have occlusive heat seal around edges. There is a protective release liner. The embodiment can be made with or without silicone adhesive.

[2] = as measured at room temperature; cited from earlier work

C=C(C)[C@@H]1CCC(C)=C[C@H]1c1c(O)cc(CCCCC)cc1O [CBD, cannabidiol]
Flux of CBD from matrix with hemp oil of 92% CBD relative to adhesive matrix with crystalline CBD ([1]; PIB monolithic patch, 15% CBD oil vs 15% crystalline CBD (FIG. 1)): about 5 times
Flux over the course of about 20 hours ([1]; human cadaver skin): at least 4 micrograms per cm^2
Cumulative flux of CBD ([1]; over ten hours, dermal patch with PIB and about 15% CBD oil, human cadaver skin, Franz diffusion cell): at least 20 micrograms CBD per cm^2

O=S(=O)(O)CCNC1CCCCC1 [CHES]
pKa [2]: 9.5

O=S(=O)(O)CCN1CCN(CCS(=O)(=O)O)CC1 [PIPES]
pKa [2]: 6.8

CCCCCc1cc(O)c2c(c1)OC(C)(C)[C@@H]1CCC(C)=C[C@@H]21 [THC, delta-9-tetrahydrocannabinol]
THC flux by solvent in reservoir patch ([1]; THC oil mixed with ethanol and with EtOH/water of different ratios): highest flux from pure ethanol
Flux over the course of about 20 hours ([1]; human cadaver skin): at least 1.0 micrograms per cm^2
THC flux from ethanol in reservoir patch relative to monolithic patch ([1]; reservoir patch, THC oil mixed with ethanol (FIG. 2)): 4 times
Cumulative flux of THC ([1]; reservoir patch, saturated ethanol/water about 60/40 with 25% THC oil, value at 24 hours (FIG. 2)): at least 50 micrograms THC per cm^2

CCCCCCCCCCCCN1CCCCCC1=O [azone, 1-dodecylazacycloheptane-2-one]
Effect of enhancer on transdermal delivery of CBD from PIB [1]: double

CCCCCCCC/C=C\CCCCCCCC(=O)O [oleic acid]
Effect of enhancer on transdermal delivery of CBD from PIB [1]: double
